In ChEMBL document CHEMBL1201862, “PubChem BioAssay data set” (2004):
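Cells were grown in 96-well plates and exposed to each compound for 48 hours at five concentrations; endpoints were interpolated linearly between bracketing concentrations, or set to the highest concentration if not reached. Abbreviation: GI50, concentration required for 50% inhibition of growth.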 Activity calls are given as the source filed them. Rule as the data show it: active = GI50 up to about 1.1 µM and inactive = higher.

Experiments:
Test in all cases: NCI anticancer screen, dose series, 48 h
A498 = test system: A498
BT-549 = test system: BT-549
CAKI-1 = test system: CAKI-1
COLO 205 = test system: COLO 205
HCT-15 = test system: HCT-15
HL-60 = test system: HL-60
HT-29 = test system: HT-29
Hs-578T = test system: Hs-578T
MDA-MB-435 = test system: MDA-MB-435
NCI-H522 = test system: NCI-H522
OVCAR-4 = test system: OVCAR-4
PC-3 = test system: PC-3
RXF 393 = test system: RXF 393
SF-268 = test system: SF-268
SF-539 = test system: SF-539
SK-MEL-2 = test system: SK-MEL-2
T47D = test system: T47D
U-251 = test system: U-251
UACC-257 = test system: UACC-257
UACC-62 = test system: UACC-62

Compound | GI50 (A498) | GI50 (BT-549) | GI50 (CAKI-1) | GI50 (COLO 205) | GI50 (HCT-15) | GI50 (HL-60) | GI50 (HT-29) | GI50 (Hs-578T) | GI50 (MDA-MB-435) | GI50 (NCI-H522) | GI50 (OVCAR-4) | GI50 (PC-3) | GI50 (RXF 393) | GI50 (SF-268) | GI50 (SF-539) | GI50 (SK-MEL-2) | GI50 (T47D) | GI50 (U-251) | GI50 (UACC-257) | GI50 (UACC-62)
C=CCc1cc(-c2cc(CC=C)c(O)c(CN(CCCl)CCCl)c2)cc(CN(CCCl)CCCl)c1O | 20.7 µM (inactive) | 14.3 µM (inactive) | 8.22 µM (inactive) | 17.7 µM (inactive) | 15.5 µM | 3.09 µM (inactive) | 13.7 µM (inactive) | 37 µM (inactive) | 15.4 µM (inactive) | 10.9 µM (inactive) | 17.6 µM (inactive) | 9.08 µM (inactive) | 12.8 µM (inactive) | 12.7 µM (inactive) | 12.2 µM (inactive) | 22.1 µM (inactive) | 8.55 µM (inactive) | 10.8 µM (inactive) | 16 µM (inactive) | 7.89 µM (inactive)
COC(=O)C1=CON2C3CC4CC(C3)CC(C4)C12C (stereo not given) | > 100 µM (inactive) | > 100 µM (inactive) | > 100 µM (inactive) | > 100 µM (inactive) | > 100 µM | > 100 µM (inactive) | > 100 µM (inactive) | > 100 µM (inactive) | > 100 µM (inactive) | > 100 µM (inactive) | > 100 µM (inactive) | > 100 µM (inactive) | > 100 µM (inactive) | > 100 µM (inactive) | > 100 µM (inactive) | > 100 µM (inactive) | > 100 µM (inactive) | > 100 µM (inactive) | > 100 µM (inactive) | > 100 µM (inactive)
Cc1ccc(-c2cc(-c3ccc(Cl)cc3)nc(/N=C3\C(=O)N(CN(C)C)c4ccccc43)n2)cc1 | > 100 µM (inactive) | 78.5 µM (inactive) | 87.9 µM (inactive) | 77.8 µM (inactive) | 41.1 µM | 7.89 µM (inactive) | 46.1 µM (inactive) | 54.8 µM (inactive) | 17.1 µM (inactive) | 20.8 µM (inactive) | 41.2 µM (inactive) | 50.9 µM (inactive) | 22.3 µM (inactive) | 89.9 µM (inactive) | > 100 µM (inactive) | 31.4 µM (inactive) | 28.8 µM (inactive) | 55 µM (inactive) | 24.8 µM (inactive) | 97.1 µM (inactive)
O=C(N/N=C(COc1ccccc1)\N=C\c1cccnc1)c1ccncc1 | > 100 µM (inactive) | > 100 µM (inactive) | > 100 µM (inactive) | > 100 µM (inactive) | > 100 µM | > 100 µM (inactive) | > 100 µM (inactive) | > 100 µM (inactive) | > 100 µM (inactive) | > 100 µM (inactive) | > 100 µM (inactive) | > 100 µM (inactive) | > 100 µM (inactive) | > 100 µM (inactive) | > 100 µM (inactive) | > 100 µM (inactive) | > 100 µM (inactive) | > 100 µM (inactive) | > 100 µM (inactive) | > 100 µM (inactive)
O=C(Nc1ccccc1)c1cc(S(=O)(=O)Nc2n[nH]c(=O)n2-c2ccccc2)c(S)cc1Cl | > 100 µM (inactive) | > 100 µM (inactive) | > 100 µM (inactive) | > 100 µM (inactive) | > 100 µM | > 100 µM (inactive) | > 100 µM (inactive) | > 100 µM (inactive) | > 100 µM (inactive) | > 100 µM (inactive) | > 100 µM (inactive) | > 100 µM (inactive) | > 100 µM (inactive) | > 100 µM (inactive) | > 100 µM (inactive) | > 100 µM (inactive) | > 100 µM (inactive) | > 100 µM (inactive) | > 100 µM (inactive) | > 100 µM (inactive)
COC(=O)[C@@H]1COC(=O)N1 | > 100 µM (inactive) | > 100 µM (inactive) | > 100 µM (inactive) | > 100 µM (inactive) | > 100 µM | > 100 µM (inactive) | > 100 µM (inactive) | > 100 µM (inactive) | > 100 µM (inactive) | > 100 µM (inactive) | > 100 µM (inactive) | > 100 µM (inactive) | > 100 µM (inactive) | > 100 µM (inactive) | > 100 µM (inactive) | > 100 µM (inactive) | > 100 µM (inactive) | > 100 µM (inactive) | > 100 µM (inactive) | > 100 µM (inactive)
C[C@H]1[C@H]2[C@H](C[C@@]3(C)C4=CC[C@H]5C(C)(C)[C@@H](OC6OCC(O)C(O)C6O)CC[C@@]56C[C@@]46CC[C@]23C)O[C@@]2(O)[C@@H]1OC(C)(C)[C@H]2O (stereo not given in full) | 1.89 µM (inactive) | 1.86 µM (inactive) | 2.05 µM (inactive) | 2.67 µM (inactive) | 1.05 µM | 6.47 µM (inactive) | 2.61 µM (inactive) | 0.682 µM (active) | 0.984 µM (active) | 0.605 µM (active) | 1.92 µM (inactive) | 1.07 µM (active) | 1.2 µM (inactive) | 0.914 µM (active) | 1.95 µM (inactive) | 5.53 µM (inactive) | 0.83 µM (active) | 1.69 µM (inactive) | 1.6 µM (inactive) | 1.61 µM (inactive)
